We go through two compounds from patent US8946142B2, “Beta-arrestin effectors and compositions and methods of use thereof” (Trevena, Inc., priority 2012, dated 2015).

What all share (type): cell-based
The target in assay [1] is T1, rat AT1aR (Rattus norvegicus, UniProt P25095).
T1 sequence (P25095 1-359): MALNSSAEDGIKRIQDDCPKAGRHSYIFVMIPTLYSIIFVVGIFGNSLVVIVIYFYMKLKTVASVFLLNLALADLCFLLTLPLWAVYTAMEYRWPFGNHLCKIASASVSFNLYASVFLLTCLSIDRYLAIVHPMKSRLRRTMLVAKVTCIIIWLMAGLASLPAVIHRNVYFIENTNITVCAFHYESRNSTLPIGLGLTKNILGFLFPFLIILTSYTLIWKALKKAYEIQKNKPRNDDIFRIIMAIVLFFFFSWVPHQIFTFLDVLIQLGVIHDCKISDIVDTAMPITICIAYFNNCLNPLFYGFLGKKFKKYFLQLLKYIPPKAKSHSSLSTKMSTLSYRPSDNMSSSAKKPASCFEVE
Briefly: IP1 accumulation assay (IP1 G-protein assay), rat AT1aR.

The target of assay [2] is T2, human AT1R (Homo sapiens, UniProt P30556).
T2 sequence (P30556 1-359): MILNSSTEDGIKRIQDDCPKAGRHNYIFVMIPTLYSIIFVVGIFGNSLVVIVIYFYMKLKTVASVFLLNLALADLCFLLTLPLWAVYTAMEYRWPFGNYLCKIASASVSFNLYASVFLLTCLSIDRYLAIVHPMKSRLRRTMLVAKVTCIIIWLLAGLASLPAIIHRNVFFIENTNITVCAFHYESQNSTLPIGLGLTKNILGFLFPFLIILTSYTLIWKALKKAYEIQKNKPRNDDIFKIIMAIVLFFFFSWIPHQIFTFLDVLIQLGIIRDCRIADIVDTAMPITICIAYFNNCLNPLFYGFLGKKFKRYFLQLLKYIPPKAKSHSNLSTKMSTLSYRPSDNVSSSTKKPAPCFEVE
Briefly: IP1 accumulation assay (IP1 G-protein assay), human AT1R. As to conditions: for Emax: read-out: Span (relative to hAngII).

Assay [3] concerns the target T1, rat AT1aR. Briefly: beta-arrestin2 recruitment assay (PathHunter), rat AT1aR. As to conditions: for Emax: 1 h, read-out: Span (relative to hAngII). A digest of the protocol:
(§1)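 PathHunter enzyme-complementation assay in HEK293 cells stably expressing ProLink-tagged human AT1R or rat AT1aR; peptides (final 100 μM–1 pM) in HBSS/20 mM HEPES for 60 min at 37 °C. Detection reagent 60 min at room temperature; β-arrestin-2 recruitment read as relative luminescence.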
For orientation: Arrestin recruitment assays detect the binding of arrestin to an activated receptor.

Assay [4] addresses T2, human AT1R. Briefly: beta-arrestin2 recruitment assay (PathHunter), human AT1R. As to conditions: for Emax: 1 h, read-out: Span (relative to hAngII). A digest of the protocol: as §1

The structures appear in SMILES notation. Where a SMILES comes first, the peptide text is derived from it. [ ]: non-standard residue; d: D form. Ac5c = NC1(C(=O)O)CCCC1; Sar = CNCC(=O)O

For `CNCC(=O)N[C@@H](CCCNC(=N)N)C(=O)N[C@H](C(=O)N[C@@H](Cc1ccc(O)cc1)C(=O)NC1(C(=O)N[C@@H](Cc2c[nH]cn2)C(=O)N2CCC[C@H]2C(=O)N[C@@H](CC(C)C)C(=O)O)CCCC1)C(C)C` [SEQ ID NO: 19, Sar-Arg-Val-Tyr-cyPen-His-Pro-Leu] (H-[Sar]RVY[Ac5c]HPL-OH), the EC50 in assay [1] (read-out: EC50) was greater than 0.6 nM; in assay [1] (read-out: pEC50 (converted)), greater than 0.631 nM; in assay [2] (read-out: EC50) it was greater than 1.3 nM; in assay [2] (read-out: pEC50 (converted)) it was greater than 0.631 nM; in assay [3] (read-out: EC50), greater than 3.2 nM; in assay [3] (read-out: pEC50 (converted)) it was greater than 3.16 nM. In addition, the EC50 in assay [4] (read-out: EC50) was greater than 3.2 nM; in assay [4] (read-out: pEC50 (converted)), greater than 3.16 nM. For the same compound, the Emax in assay [2] is less than 103%; in assay [3] it was less than 105%; in assay [4], less than 101%.
Consider `CNCC(=O)N[C@@H](CCCNC(=N)N)C(=O)N[C@H](C(=O)N[C@@H](Cc1ccc(O)cc1)C(=O)N1CCC[C@H]1C(=O)N[C@@H](Cc1c[nH]cn1)C(=O)N1CCC[C@H]1C(=O)N[C@@H](Cc1ccccc1)C(=O)O)C(C)C` [SEQ ID NO: 10, Sar-Arg-Val-Tyr-Pro-His-Pro-Phe] (H-[Sar]RVYPHPF-OH; N-terminus and C-terminus assumed), for which the Emax in assay [1] (read-out: Span (relative to hAngII)) was less than 104%; in assay [2], less than 103%; in assay [3], greater than 105%; in assay [4], less than 101%.
